# Values quoted from earlier work, collected in PMC9298070, “Lack of a Clinically Meaningful Drug Interaction Between the HIV‐1 Antiretroviral Agents Islatravir, Dolutegravir, and Tenofovir Disoproxil Fumarate” (Clinical Pharmacology in Drug Development, 2021).
# Tested on: CYP2D6
# Design: method as in PMID 34452431
# Conditions: at concentrations up to 100 μM; cited from earlier work
structure (smiles),measurement,value
"C#C[C@]1(CO)O[C@@H](n2cnc3c(N)nc(F)nc32)C[C@@H]1O [Islatravir, 4′‐Ethynyl‐2‐fluoro‐2′‐deoxyadenosine]",inhibitory effect on CYP2D6,no inhibitory effect
